# Measured values: article doi:10.1101/2022.08.09.502705v1 (biorxiv, 2022)
# Experiments:
# hSERT = hSERT (Homo sapiens, UniProt P31645, K490T); assay: cell-based
# iFluoxSnFR [1] = assay: isothermal titration calorimetry; type: binding; conditions: 3x PBS pH […] °C
# iFluoxSnFR [2] = assay: fluorescence concentration-response of purified biosensor; type: binding; conditions: purified protein
# iEscSnFR [3] = assay: as above; type: binding; conditions: purified protein
# iEscSnFR [4] = assay: isothermal titration calorimetry; type: binding; conditions: 3x PBS pH […] °C
# hSERT, sequence (P31645 whole entry K490T): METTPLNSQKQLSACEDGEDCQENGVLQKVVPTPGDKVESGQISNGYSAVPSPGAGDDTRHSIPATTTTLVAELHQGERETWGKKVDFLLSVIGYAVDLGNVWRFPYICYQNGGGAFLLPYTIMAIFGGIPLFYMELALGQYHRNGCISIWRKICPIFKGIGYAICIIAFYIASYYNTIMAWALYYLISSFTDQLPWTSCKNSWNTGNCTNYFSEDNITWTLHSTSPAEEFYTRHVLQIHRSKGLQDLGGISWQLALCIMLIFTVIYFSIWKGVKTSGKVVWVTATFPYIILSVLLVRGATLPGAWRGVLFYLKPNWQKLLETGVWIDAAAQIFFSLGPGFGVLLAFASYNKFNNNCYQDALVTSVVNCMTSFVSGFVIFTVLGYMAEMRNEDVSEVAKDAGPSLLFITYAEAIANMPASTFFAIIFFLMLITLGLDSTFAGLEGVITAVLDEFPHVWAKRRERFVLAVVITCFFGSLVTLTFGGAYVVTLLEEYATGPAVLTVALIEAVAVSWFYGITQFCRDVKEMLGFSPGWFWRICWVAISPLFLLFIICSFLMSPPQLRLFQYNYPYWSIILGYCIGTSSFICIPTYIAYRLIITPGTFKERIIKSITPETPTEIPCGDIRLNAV
Structure (SMILES),EC50 (iFluoxSnFR [2]),EC50 (iEscSnFR [3]),also measured
C[N+](C)(C)CCC[C@@]1(c2ccc(F)cc2)OCc2cc(C#N)ccc21 [N-methylescitalopram],–,1.8 ± 0.2 µM,–
C[N+](C)(C)CCO [choline],–,140 ± 20 µM,–

# More lines, main results first:
EC50 (iFluoxSnFR [2]),EC50 (iEscSnFR [3]),Structure (SMILES),also measured
14 ± 0.4 µM,–,C[N+](C)(C)CCC(Oc1ccc(C(F)(F)F)cc1)c1ccccc1 (racemic) [N-N-dimethylfluoxetine],IC50 (hSERT): 0.6 ± 0.2 µM; Kd (iFluoxSnFR [1]): 28.1 ± 3.7 µM
–,4.5 ± 0.2 µM,CN(C)CCC[C@@]1(c2ccc(F)cc2)OCc2cc(C#N)ccc21 [escitalopram],Kd (iEscSnFR [4]): 3.4 ± 0.1 µM
63 ± 20 µM,–,NCCC(Oc1ccc(C(F)(F)F)cc1)c1ccccc1 (centres unmarked) [norfluoxetine],–
